Data from paper PMC10817917, “Alkyl deoxyglycoside-polymyxin combinations against critical priority carbapenem-resistant gram-negative bacteria” (Scientific Reports, 2024).
Where two headings read alike, the source gives them in different places.

Legend:
K. pneumoniae CQ4921 = assay: Broth microdilution MIC/MBC, glycosides with or without polymyxins; assay type: cell-based, Klebsiella pneumoniae; details: for MIC: Klebsiella pneumoniae, CQ4921
E. coli NCTC 13846 = assay: as above; assay type: cell-based, Escherichia coli; details: strain B
Caco-2 cells = assay: Resazurin cell viability assay (cytotoxicity); assay type: cell-based, human; details: Homo sapiens, Caco-2, 72 h, read-out: IC50
Outline: (§1)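 HEK-293T and Caco-2 cells (1.5 × 10^4/well, RPMI 1640 with 10% FBS) exposed 72 h at 37 °C to glycosides at final 100 to 10 µM, alone or with PMB or colistin at final 0.5, 0.25 or 0.125 µg/mL; max DMSO 0.33%. Resazurin added 4 h, read 570/600 nm; IC50 from dose-response fits, mean ± SD of three replicates.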

HEK-293T cells = assay: Resazurin cell viability assay (cytotoxicity); assay type: cell-based, human; details: 72 h, read-out: IC50
Outline: as §1

[1] = test system: Bacillus anthracis (Sterne, ovine and pathogenic forms), Enterococcus faecalis and Bacillus cereus; details: Gram-positive bacteria; cited from earlier work
E. cloacae CQ1941 = assay: Broth microdilution MIC/MBC, glycosides with or without polymyxins; assay type: cell-based; details: for MIC: Enterobacter cloacae, CQ1941
K. pneumoniae CQ1942 = assay: Broth microdilution MIC, glycosides with or without polymyxins; assay type: cell-based, Klebsiella pneumoniae; details: for MIC: Klebsiella pneumoniae, CQ1942
[2] = alone, read-out: MICA (MIC of each compound individually)
[3] = combination with the lowest FICI
[4] = compound + colistin, lowest FICI

## CCCCCCCCCCCCO[C@@H]1O[C@H](C)C[C@H](O)[C@H]1O [Compound 2, dodecyl 4,6-dideoxy-α/β-D-xylo-hexopyranoside]
K. pneumoniae CQ4921; Cpd conc. 0.4 μg/mL, strain C
  MIC of colistin in combination with the compound: 0.5 µg/mL
K. pneumoniae CQ4921; Cpd conc. 0.8 μg/mL, strain C
  MIC of colistin in combination with the compound: 0.5 µg/mL
K. pneumoniae CQ4921; Cpd conc. 3.125 μg/mL, strain C
  MIC of colistin in combination with the compound: 0.125 µg/mL
K. pneumoniae CQ4921; Cpd conc. 6.25 μg/mL, strain C
  MIC of colistin in combination with the compound: 0.125 µg/mL
K. pneumoniae CQ4921; Cpd conc. 12.5 μg/mL, strain C
  MIC of colistin in combination with the compound: 0.125 µg/mL
K. pneumoniae CQ4921; Cpd conc. […], strain C
  MIC of colistin in combination with the compound: 0.5 µg/mL
K. pneumoniae CQ4921; agent alone, no adjuvant (polymyxin conc. 0), strain C, read-out: MIC
  MIC: > 100 µg/mL
K. pneumoniae CQ4921; [2]
  MIC: > 100 µg/mL
K. pneumoniae CQ4921; PMB 0.5 μg/mL, strain C
  MIC of compound in combination with PMB: ≤ 0.1 µg/mL
K. pneumoniae CQ4921; colistin 0.06 μg/mL, strain C
  MIC of compound in combination with colistin: > 100 µg/mL
K. pneumoniae CQ4921; colistin 0.125 μg/mL, strain C
  MBC of compound in combination with colistin: 6.3 µg/mL
  MIC of compound in combination with colistin: 3.1 µg/mL
K. pneumoniae CQ4921; colistin 0.25 μg/mL, strain C
  MIC of compound in combination with colistin: 3.1 µg/mL
K. pneumoniae CQ4921; colistin 0.5 μg/mL, strain C
  MIC of compound in combination with colistin: ≤ 0.1 µg/mL
K. pneumoniae CQ4921; [3]
  MICA(A + B) (MIC of compound in combination with colistin): 3.125 µg/mL
  MICB(A + B) (MIC of colistin in combination with compound): 0.125 µg/mL
K. pneumoniae CQ4921; compound + colistin
  Interpretation (of FICI): Synergy (Values ≤ 0.5 were considered synergistic)
K. pneumoniae CQ4921; [4]
  FICI: 0.27
E. coli NCTC 13846; Cpd conc. 0.4 μg/mL
  MIC of colistin in combination with the compound: > 0.5 µg/mL
E. coli NCTC 13846; Cpd conc. 0.8 μg/mL
  MIC of colistin in combination with the compound: > 0.5 µg/mL
E. coli NCTC 13846; Cpd conc. 3.125 μg/mL
  MIC of colistin in combination with the compound: > 0.5 µg/mL
E. coli NCTC 13846; Cpd conc. 6.25 μg/mL
  MIC of colistin in combination with the compound: > 0.5 µg/mL
E. coli NCTC 13846; Cpd conc. 12.5 μg/mL
  MIC of colistin in combination with the compound: > 0.5 µg/mL
E. coli NCTC 13846; Cpd conc. […]
  MIC of colistin in combination with the compound: > 0.5 µg/mL
E. coli NCTC 13846; Escherichia coli, NCTC13846, agent alone, no adjuvant (polymyxin conc. 0), read-out: MIC
  MIC: > 100 µg/mL
E. coli NCTC 13846; PMB 0.25 μg/mL
  MIC of compound in combination with PMB: > 100 µg/mL
E. coli NCTC 13846; PMB 0.5 μg/mL
  MIC of compound in combination with PMB: > 100 µg/mL
E. coli NCTC 13846; colistin 0.06 μg/mL
  MIC of compound in combination with colistin: > 100 µg/mL
E. coli NCTC 13846; colistin 0.125 μg/mL
  MBC of compound in combination with colistin: > 100|> 100 μg/mL
  MIC of compound in combination with colistin: > 100|> 100 μg/mL
E. coli NCTC 13846; colistin 0.25 μg/mL
  MIC of compound in combination with colistin: > 100 µg/mL
E. coli NCTC 13846; colistin 0.5 μg/mL
  MIC of compound in combination with colistin: > 100 µg/mL
Caco-2 cells; Colistin 0.125 μg/mL
  IC50: 55.7 ± 0.52 µM
Caco-2 cells; Colistin 0.25 μg/mL
  IC50: 58.09 ± 0.33 µM
Caco-2 cells; Colistin 0.5 μg/mL
  IC50: 53.4 ± 5.35 µM
Caco-2 cells; No polymyxin
  IC50: 54.8 ± 0.61 µM
Caco-2 cells; PMB 0.25 μg/mL
  IC50: 58.8 ± 2.66 µM
Caco-2 cells; PMB 0.5 μg/mL
  IC50: 56.4 ± 3.9 µM
Caco-2 cells; tested alone (no polymyxin adjuvant)
  IC50: 17.4 µg/mL
HEK-293T cells; Homo sapiens, HEK-293T, Colistin 0.25 μg/mL
  IC50: 80.7 ± 6.08 µM
HEK-293T cells; Homo sapiens, HEK-293T, Colistin 0.5 μg/mL
  IC50: 84.1 ± 2.87 µM
HEK-293T cells; Homo sapiens, HEK-293T, No polymyxin
  IC50: 84.2 ± 2.59 µM
HEK-293T cells; Homo sapiens, HEK-293T, PMB 0.25 μg/mL
  IC50: 84.5 ± 1.52 µM
HEK-293T cells; Homo sapiens, HEK-293T, PMB 0.5 μg/mL
  IC50: 82 ± 2.9 µM
HEK-293T cells; Homo sapiens, HEK-293T, tested alone (no polymyxin adjuvant)
  IC50: 26.6 µg/mL
HEK-293T cells; No polymyxin
  IC50: 84.2 µM
[1]
  MIC: > 405 µM
E. cloacae CQ1941; Cpd conc. 0.4 μg/mL, strain D
  MIC of colistin in combination with the compound: 0.5 µg/mL
E. cloacae CQ1941; Cpd conc. 0.8 μg/mL, strain D
  MIC of colistin in combination with the compound: 0.5 µg/mL
E. cloacae CQ1941; Cpd conc. 3.125 μg/mL, strain D
  MIC of colistin in combination with the compound: 0.25 µg/mL
E. cloacae CQ1941; Cpd conc. 6.25 μg/mL, strain D
  MIC of colistin in combination with the compound: 0.25 µg/mL
E. cloacae CQ1941; Cpd conc. 12.5 μg/mL, strain D
  MIC of colistin in combination with the compound: 0.125 µg/mL
E. cloacae CQ1941; Cpd conc. […], strain D
  MIC of colistin in combination with the compound: 0.25 µg/mL
E. cloacae CQ1941; agent alone, no adjuvant (polymyxin conc. 0), strain D, read-out: MIC
  MIC: > 100 µg/mL
E. cloacae CQ1941; [2]
  MIC: > 100 µg/mL
E. cloacae CQ1941; PMB 0.25 μg/mL, strain D
  MIC of compound in combination with PMB: 12.5 µg/mL
E. cloacae CQ1941; PMB 0.5 μg/mL, strain D
  MIC of compound in combination with PMB: ≤ 0.1 µg/mL
E. cloacae CQ1941; colistin 0.06 μg/mL, strain D
  MIC of compound in combination with colistin: > 100 µg/mL
E. cloacae CQ1941; colistin 0.125 μg/mL, strain D
  MBC of compound in combination with colistin: 25 µg/mL
  MIC of compound in combination with colistin: 12.5 µg/mL
E. cloacae CQ1941; colistin 0.25 μg/mL, strain D
  MIC of compound in combination with colistin: 1.6 µg/mL
E. cloacae CQ1941; colistin 0.5 μg/mL, strain D
  MIC of compound in combination with colistin: ≤ 0.1 µg/mL
E. cloacae CQ1941; [3]
  MICA(A + B) (MIC of compound in combination with colistin): 12.5 µg/mL
  MICB(A + B) (MIC of colistin in combination with compound): 0.125 µg/mL
E. cloacae CQ1941; [4]
  FICI: 0.31
K. pneumoniae CQ1942; Cpd conc. 0.4 μg/mL, strain E
  MIC of colistin in combination with the compound: 0.5 µg/mL
K. pneumoniae CQ1942; Cpd conc. 0.8 μg/mL, strain E
  MIC of colistin in combination with the compound: 0.5 µg/mL
K. pneumoniae CQ1942; Cpd conc. 3.125 μg/mL, strain E
  MIC of colistin in combination with the compound: 0.5 µg/mL
K. pneumoniae CQ1942; Cpd conc. 6.25 μg/mL, strain E
  MIC of colistin in combination with the compound: 0.25 µg/mL
K. pneumoniae CQ1942; Cpd conc. 12.5 μg/mL, strain E
  MIC of colistin in combination with the compound: 0.25 µg/mL
K. pneumoniae CQ1942; Cpd conc. […], strain E
  MIC of colistin in combination with the compound: 0.5 µg/mL
K. pneumoniae CQ1942; agent alone, no adjuvant (polymyxin conc. 0), strain E, read-out: MIC
  MIC: > 100 µg/mL
K. pneumoniae CQ1942; [2]
  MIC: > 100 µg/mL
K. pneumoniae CQ1942; PMB 0.25 μg/mL, strain E
  MIC of compound in combination with PMB: > 100 µg/mL
K. pneumoniae CQ1942; PMB 0.5 μg/mL, strain E
  MIC of compound in combination with PMB: ≤ 0.1 µg/mL
K. pneumoniae CQ1942; colistin 0.06 μg/mL, strain E
  MIC of compound in combination with colistin: > 100 µg/mL
K. pneumoniae CQ1942; colistin 0.125 μg/mL, strain E
  MIC of compound in combination with colistin: > 100 µg/mL
K. pneumoniae CQ1942; colistin 0.25 μg/mL, strain E
  MIC of compound in combination with colistin: 6.3 µg/mL
K. pneumoniae CQ1942; colistin 0.5 μg/mL, strain E
  MIC of compound in combination with colistin: ≤ 0.1 µg/mL
K. pneumoniae CQ1942; [3]
  MICA(A + B) (MIC of compound in combination with colistin): 6.25 µg/mL
  MICB(A + B) (MIC of colistin in combination with compound): 0.25 µg/mL
K. pneumoniae CQ1942; compound + colistin
  Interpretation (of FICI): Additive (from 0.5 to 1.0 were additive)
K. pneumoniae CQ1942; [4]
  FICI: 0.53
